Results from article PMC9101764, “Synthesis and In Vitro Characterization of Selective Cannabinoid CB2 Receptor Agonists: Biological Evaluation against Neuroblastoma Cancer Cells” (Molecules, 2022).

What was measured:
SH-SY5Y cells = assay: Sulforhodamine B (SRB) cell viability assay; type: cell-based, human
Description: We tested the anti-proliferative activity of the novel CB2R agonists FG158a, FG160a, FG161a, and LV62 in neuroblastoma cell lines (Figure 4). The compounds were assayed as a mixture of cis and trans isomers. […] After 72 h of treatment, the effect was higher and could also be observed at lower concentrations. The inhibitory effect was confirmed in another neuroblastoma cell line, SK-N-BE cells.
Human neuroblastoma SHSY5Y and SK-N-BE cell lines were grown in DMEM (GIBCO, Paisley, UK) and MEM (Sigma-Aldrich, St.Louis, MO, USA), respectively, supplemented with 2 mM l-glutamine, […], 50 units/mL penicillin and 10% heat-inactivated fetal bovine serum (FBS) in a humidified atmosphere (5% CO2 at 37 °C). Cells were detached as previously described with 0.25% trypsin (Sigma-Aldrich) at 70–80% confluence.
Cells seeded for 24 h in triplicate in 96-well plates at a density of 8000 cells/well were left to adhere overnight. CB2R agonists were added to the culture in triplicate at concentrations ranging from 2.5–40 µM. After 24 h, 48 h, and 72 h, cells were fixed, shaking for 2 h at 4 °C with 50% v/v trichloroacetic acid and washed with distilled water. Cells left overnight to dry were stained with 0.4% w/v SRB in 1% v/v acetic acid (at room temperature for 30 min on a shaker) and then washed with 1% acetic acid to allow for the removal of the unbound dye. TRIS-HCl 10 mM, pH 7.4 was added to the cells and absorbance was measured at 495 nm as previously shown using a Glomax® Discover Microplate Reader (Promega, Madison, WI, USA). In combinatory assays, similar procedures were adopted and the CB2R antagonist SR144528 (1 µM) was added 1 h before the CB2 agonists (10, 20 and 40 µM) to SHSY5Y cells that were harvested as described above after 72 h of incubation.
Figure 4 Inhibition of cell viability. The effect on cell viability by CB2R agonists was determined by sulforhodamine B (SRB) assays in SH-SY5Y and SK-N-BE cell lines. SH-SY5Y cells were treated with the compounds indicated in the figure for 24 h (A), 48 h (B), and 72 h (C) at the concentrations reported in the histograms. SK-N-BE cells were treated with the same compounds for 72 h (D). Figures report cell viability (mean of at least 3 independent experiments ± SEM) as percent of cell survival vs. untreated cells (considered as 100% of survival). […] The statistical significance was calculated with two-way ANOVA using Dunnett’s multiple comparisons test.

ERK1/2 = ERK1/2 Western blot and densitometric analysis; type: cell-based, human; conditions: SH-SY5Y cells
Text: Among the CB2R agonists tested, we selected FG158a as it provides the best dose–response curve in SH-SY5Y cells (Figure 4B). The effect of CB2R agonists on the ERK pathway has been previously detected in other tumor models such as a breast cancer model. The dysregulation of the ERK/MAPK pathway is crucial in neuroblastoma. […] We addressed the effect of FG158a on MAPK kinase activation by the evaluation of its component ERK1/2 in the presence and in the absence of the antagonist SR144528 (Figure 6).
After the treatment with FG158a (20 μM) in the presence and absence of SR144528 (added 1 h before the CB2R agonist at the concentration of 1 µM), SHSY5Y cells were centrifuged and cell pellets were lysed in R.I.P.A. buffer (50 mM Tris-HCl, pH = 7.4; 150 mM NaCl; […], 1% NP-40; 0.5% sodium deoxycholate; 0.1% SDS; 1:100 phosphatase and protease inhibitors, both added before the lysis). Samples were centrifuged (17,900× g 20′ at 4 °C) and protein concentration was determined by Bio-Rad Protein Assay (Bio-Rad, Berkeley, CA, USA) as previously described. […]
Figure 6 FG158a inhibition of ERK1/2 is mediated by CB2R. […] The statistical analysis was performed by parametric two tailed t-test (* p < 0.05 FG158a calculated with respect to the CTR; ^& p < 0.01 FG158a+SR144528 calculated with respect to FG158a).

In the case of `CC1CCC(NC(=O)c2cc3cccnc3n(CCCCCBr)c2=O)CC1` (stereo not shown) [FG158a, 1-(5-bromopentyl)-N-(4-methylcyclohexyl)-2-oxo-1,2-dihydro-1,8-naphthyridine-3-carboxamide], the “effect on cell viability” value (SH-SY5Y cells; 24 h, 48 h and 72 h, 2.5–40 µM) is reported as “inhibited cell viability”, the IC50 (SH-SY5Y cells; Homo sapiens, 72 h of treatment, SRB, cis/trans mixture) is reported as 11.8 µM and the “effect on ERK1/2 expression in presence of SR144528” value (ERK1/2; 20 µM FG158a + SR144528 1 µM added 1 h before) is reported as “reversed the inhibitory effect”. For the same molecule, the “effect on ERK1/2 expression” value (ERK1/2; 20 µM, vs untreated control cells) was “inhibited ERK1/2 expression”.
